Experimental data as given in patent US6777004B1, “Composition containing novel compound corniculatonin having antifungi properties and a process for preparing the same” (Council of Scientific & Industrial Research, priority 2001, dated 2004).

What was measured:
T. tonsurans [1] = test: Disk diffusion assay, zone of inhibition; type: cell-based, Trichophyton tonsurans; settings: 250 μg. disk^−1; incubated at room temperature 42-120 hrs
Source text: (§1) Agar: Czapek Malt Agar (Himedia laboratories Ltd.) was used for culturing Microsporumn gypseum, Trichophyton mentagrophytes T. tonsurans, T. violaceum, Aspergillus fresenii and A. niger. Mycological Agar (Himedia Laboratories Ltd) was used for Cryptococcus neoformans and Candida sp.
(§2) Pathogenic fungal strains of yeast and filamentous fungi identified and gifted by Dr. Savio from Goa Medical College, Bambolim, were used for the test. Strains of Aspergillus were isolated from the infected wheat bread with sterile needle; fungal material was surface sterilized using 0.5% sodium hypochlorite for 2-3 minutes, and then washed with small brush in sterile distilled water. Washed fungal material was transferred using needle into the sterile culture media and subcultured for purification by following standard methods (Collins and Taylor, 1967). Taxonomic identification was done by using various standard keys (Ainswort et al., 1973; Onion et al., 1981) and identification confirmed by Alka Pandey of Agarkar Research Institute, Pune.
Disk diffusion assay: The disk diffusion assay was used for screening of antifungal activity of the compound. The stock solution for the test was prepared by dissolving 5 mg of the compound of formula 1 in 200 μl dimethylsulfoxide (DMSO). […] The zones of inhibition around the disks were measured.

Aspergillus fresenii [2] = test: Disk diffusion assay, zone of inhibition; type: cell-based; settings: 250 μg. disk^−1; incubated at room temperature 42-120 hrs
Source text: as §1, §2
(§3) Disk diffusion assay: The disk diffusion assay was used for screening of antifungal activity of the compound. The stock solution for the test was prepared by dissolving 5 mg of the compound of formula 1 in 200 μl dimethylsulfoxide (DMSO). From the stock solution 10 μl were spread on the paper disc so as to obtain the final concentration of 250 μg disk^−1 Control disk was applied reconstituted with only dimethylsulphoxide and were dried at 28-29° C. Completely dried disk was applied to innoculated plates. The plates were incubated at room temperature for the period between 42-120 hrs. to obtain maximum growth in the culture media. The zones of inhibition around the disks were measured.

Aspergillus niger [3] = test: Disk diffusion assay, zone of inhibition; type: cell-based; settings: 250 μg. disk^−1; incubated at room temperature 42-120 hrs
Source text: as §1, §2, §3

Candida sp. [4] = test: Disk diffusion assay, zone of inhibition; type: cell-based; settings: 250 μg. disk^−1; incubated at room temperature 42-120 hrs
Source text: as §1, §2, §3

Cryptococcus neoformans [5] = test: Disk diffusion assay, zone of inhibition; type: cell-based; settings: 250 μg. disk^−1; incubated at room temperature 42-120 hrs
Source text: as §1, §2, §3

Microsporum gypseum [6] = test: Disk diffusion assay, zone of inhibition; type: cell-based; settings: 250 μg. disk^−1; incubated at room temperature 42-120 hrs
Source text: as §1, §2, §3

T. violaceum [7] = test: Disk diffusion assay, zone of inhibition; type: cell-based; settings: 250 μg. disk^−1; incubated at room temperature 42-120 hrs
Source text: as §1, §2, §3

[8] = test system: Trichophyton mentagrophytes; test: Disk diffusion assay, zone of inhibition; type: cell-based; settings: 250 μg. disk^−1; incubated at room temperature 42-120 hrs
Source text: as §1, §2, §3

T. tonsurans [9] = test: Minimum Inhibitory Concentration (MIC), disk diffusion method; type: cell-based, Trichophyton tonsurans; settings: 3.12-50 μg per disk tested, 42-120 hrs at room temperature
Source text: as §1, §2
Innocula were adjusted to 100 μl of Cryptococcus neoformans, Candida sp., Microsporum gypseum, Trichophyton tonsurans, T. violaceum and Trichophyton mentagrophytes and spread on the appropriate plates, excess moisture was allowed to absorb for 10 minutes before applying disks. […]

Aspergillus fresenii [10] = test: as above; type: cell-based; settings: 3.12-50 μg per disk tested, 42-120 hrs at room temperature
Source text: as §1, §2
(§4) Innocula were adjusted to 100 μl of Cryptococcus neoformans, Candida sp., Microsporum gypseum, Trichophyton tonsurans, T. violaceum and Trichophyton mentagrophytes and spread on the appropriate plates, excess moisture was allowed to absorb for 10 minutes before applying disks. Immediately prior to the assay, the testing compound of formula 1, object of the present invention, the reference compounds amphotericin B and nystatin, potency approx:750 μ/mg and 480 USP unit/mg respectively, were reconstituted in triplicate in dimethylsulfoxide. […] From the stock solution 10 μl were spread on the paper disk so as to obtain final concentration of 50 μg disc^−1, 25 μg disc^−1, 12.5 μg disc^−1, 6.25 μg disc^−1 and 3.12 μg disk^−1. Disks were dried at reduced pressure in the dessicator, at 28-29° C. and applied to innoculated plates.
(§5) In testing, the compound of formula 1 was reconstituted in dimethylsulfoxide (DMSO) immediately prior to all assays. Dimethylsulfoxide (DMSO) alone had no detectable inhibitory effect on any of the tested microbes. Compound of formula 1 was tested against a diverse collection of yeast and filamentous fungi, some of which are resistant to the reference compound nystatin. Filamentous fungi were nystatin resistant.

Candida sp. [11] = test: as above; type: cell-based; settings: 3.12-50 μg per disk tested, 42-120 hrs at room temperature
Source text: as §1, §2, §4, §5

Cryptococcus neoformans [12] = test: as above; type: cell-based; settings: 3.12-50 μg per disk tested, 42-120 hrs at room temperature
Source text: as §1, §2, §4, §5

Microsporum gypseum [13] = test: as above; type: cell-based; settings: 3.12-50 μg per disk tested, 42-120 hrs at room temperature
Source text: as §1, §2, §4, §5

T. violaceum [14] = test: as above; type: cell-based; settings: 3.12-50 μg per disk tested, 42-120 hrs at room temperature
Source text: as §1, §2, §4, §5

[15] = test system: Trichophyton mentagrophytes; test: as above; type: cell-based; settings: 3.12-50 μg per disk tested, 42-120 hrs at room temperature
Source text: as §1, §2, §4, §5

[16] = test system: strains of yeast and filamentous fungi; test: In vitro antifungal activity, disk diffusion, whole panel (summary in words); type: cell-based; settings: for antifungal activity in words: all the strains of yeast and filamentous fungi tested
Protocol: as §4, §5

Aspergillus niger [17] = test: Minimum Inhibitory Concentration (MIC), disk diffusion method; type: cell-based; settings: 3.12-50 μg per disk tested, 42-120 hrs at room temperature
Source text: as §1, §2, §4, §5

Cladosporium cucumerinum = settings: plant pathogenic fungus Cladosporium cucumerinum; cited from earlier work

Row | Compound | Disk Diffusion Method, zone of inhibition (T. tonsurans [1]) | Disk Diffusion Method, zone of inhibition (Aspergillus fresenii [2]) | Disk Diffusion Method, zone of inhibition (Aspergillus niger [3]) | Disk Diffusion Method, zone of inhibition (Candida sp. [4]) | Disk Diffusion Method, zone of inhibition (Cryptococcus neoformans [5]) | Disk Diffusion Method, zone of inhibition (Microsporum gypseum [6]) | Disk Diffusion Method, zone of inhibition (T. violaceum [7]) | Disk Diffusion Method, zone of inhibition [8] | MIC (T. tonsurans [9]) | MIC (Aspergillus fresenii [10]) | MIC (Candida sp. [11]) | MIC (Cryptococcus neoformans [12]) | MIC (Microsporum gypseum [13]) | MIC (T. violaceum [14]) | MIC [15] | antifungal activity in words [16] | MIC (Aspergillus niger [17]) | sensitivity of filamentous fungi in words ([16]; filamentous fungi) | antifungal amount in TLC bioassay (Cladosporium cucumerinum)
1 | 3-O-α-rhamnopyranosyl-rhamnopyranosyl-glucopyranosyl-glucoronopyranosylgluco-pyrano side 16 α-hydroxy-13,28-epoxy oleanane [Compound 1] | 14 mm | 10 mm | 4 mm | 9 mm | 9 mm | 14 mm | 13 mm | 12 mm | 12.5-25 μg. disk^−1 | 25-50 μg. disk^−1 | 6.25-12.5 μg. disk^−1 | 6.25-12.5 μg. disk^−1 | 12.5-25 μg. disk^−1 | 25-50 μg. disk^−1 | 25-50 μg. disk^−1 | fungicidal against all the strains of yeast and filamentous fungi tested except Aspergillus niger |  |  | 
2 | C[C@@H]1[C@H](O)[C@@H](C)/C=C/C=C/C=C/C=C/C=C/C=C/C=C/[C@H](O[C@@H]2O[C@H](C)[C@@H](O)[C@H](N)[C@@H]2O)C[C@@H]2O[C@](O)(C[C@@H](O)C[C@@H](O)[C@H](O)CC[C@@H](O)C[C@@H](O)CC(=O)O[C@H]1C)C[C@H](O)[C@H]2C(=O)O [Amphotericin B, reference compound] |  |  |  |  |  |  |  |  | 6.25-12.5 μg. disk^−1 | 12.5-25 μg. disk^−1 | 3.12-6.25 μg. disk^−1 | 3.12-6.25 μg. disk^−1 | 6.25-12.5 μg. disk^−1 | 6.25-12.5 μg. disk^−1 | 6.25-12.5 μg. disk^−1 | sensitive | 12.5-25 μg. disk^−1 |  | 
3 | C[C@@H]1[C@H](O)[C@@H](C)/C=C/C=C/CC/C=C/C=C/C=C/C=C/C(O[C@H]2O[C@H](C)[C@@H](O)[C@H](N)[C@@H]2O)CC2O[C@](O)(CC(O)C(O)CCC(O)CC(O)CC(O)CC(=O)O[C@H]1C)CC(O)C2C(=O)O (some centres unmarked) [Nystatin] |  |  |  |  |  |  |  |  |  |  | 6.25-12.5 μg. disk^−1 | 6.25-12.5 μg. disk^−1 |  |  |  |  |  | resistant | 
4 | Sakurasaponin |  |  |  |  |  |  |  |  |  |  |  |  |  |  |  |  |  |  | 1 µg
